For one test, the system named is S. cerevisiae. To be noted: typical low concentration; background statement; cited from earlier work.
In another test the target is FY23WT. The note with it: strain FY23WT (grande parent); batch culture 30°C; exogenous ethanol 0-10% (w/v); µ corrected for viability. The method, then:
(§1) Strain-specific ethanol tolerances were determined in batch cultures in specially adapted 100ml Erienmeyer flasks (called Klett Flasks) in combination with the Klett Summerson colorimeter and a green filter (Klett Summerson, USA). Cultures were grown to early exponential phase overnight and then split into 18ml aliquots to which 2ml of either sterile distilled water or ethanol solution were added to the aliquots giving final concentrations of 0, 2,3,4,6 and 10% (w/v) ethanol. Each concentration was carried out in triplicate and hourly measurements were made of cell density. A 1ml sample was extracted from the flask, diluted and plated onto YPD for a viable cell count. The remainder of the sample was centrifuged (15,000 rpm, 4°C, 5 min) and the supernatant frozen for subsequent analysis of ethanol concentration by GC.
(§2) All four members of the isogenic series (FY23WT, FY23Δpet191, FY23Δcox5a and FY23ρ^0) were grown in batch culture at 30°C and ethanol, at various concentrations, was introduced at the beginning of the exponential phase. Cell growth was followed for eight hours measuring optical densities with a Klett meter.
(§3) Graphs were plotted of loge Klett units against elapsed time and linear regression analysis was performed to calculate culture specific growth rates, µ. The effect of ethanol on the growth rate of the 4 members of the series was analysed by comparing relative growth rates at each ethanol concentration, and calculating these as a percentage of the growth rate in the absence of ethanol.
(§4) Ethanol inhibition kinetics are thought to follow those of non-competitive inhibition and can be modeled using a variant of the Monod equation. From the specific growth rate values calculated, it is possible to determine values of Ki by inserting them into the rearranged equation [µm/µi - 1 = I. 1/Ki]. […] The initial values of µ calculated are µapparent values determined from the growth of a culture containing both living and dead cells.

Another test has as its system FY23Δcox5a. Here is the method: as §1, §2, §3, §4
For the next test, the system named is FY23Δpet191. The method, then: as §1, §2, §3, §4
Another test relates to FY23ρ^0. The method, then: as §1, §2, §3, §4

As to `C[C@@H]1C[C@@H]([C@H](O)CC2CC(=O)NC(=O)C2)C(=O)[C@@H](C)C1` [cycloheximide], the “concentration to which S. cerevisiae is sensitive” value with S. cerevisiae is about 0.2 µg/mL.

As to `CCO` [ethanol], the “Ki (true growth rate)” value is recorded as 2.30 % (w/v) on FY23WT; 1.94 % (w/v) at FY23Δcox5a (strain FY23Δcox5a (nuclear petite), batch culture 30°C, µ corrected for viability); 2.14 % (w/v) at FY23Δpet191 (strain FY23Δpet191 (nuclear petite), batch culture 30°C, µ corrected for viability); 1.71 % (w/v) at FY23ρ^0 (strain FY23ρ^0 (mitochondrial petite), batch culture 30°C, µ corrected for viability). The “ethanol tolerance relative to the wild-type strain” value in the test with FY23Δcox5a (FY23Δcox5a, Ki as percentage of FY23WT) is 86%. Moreover, in the test on FY23Δpet191 (FY23Δpet191, Ki relative to FY23WT), the “Ki as percentage of the wild-type value” is “approximately 95%”. Further, the “ethanol tolerance relative to FY23 WT” value in the test with FY23ρ^0 (mitochondrial petite, Ki as percentage of FY23WT) came out at 76%.

Source of the values: EP1009837B1 (priority 1997, dated 1999).
